Assay results taken from patent US7994140B2, “Classes of compounds that interact with GPCRs” (Alchemia Limited, priority 2002, dated 2011).

biological target: T1, MC4 (Homo sapiens, UniProt P32245); assay: GPCR radioligand binding (RLB) assay, melanocortin MC4, [125I]NDP-αMSH; details: 4.0 Micromolar; Example Library 10
T1 construct: purchased Perkin Elmer BioSignal; host or cells: HEK 293
Summary of the method: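 Membranes from HEK 293 cells expressing the recombinant human receptor were equilibrated with [125I]SST-14 (SST5) or [125I]NDP-αMSH (MC4), then compound added for an optimized incubation. Bound ligand separated by filtration on PEI-coated glass fiber and counted by liquid scintillation.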

T1 sequence (P32245 whole entry): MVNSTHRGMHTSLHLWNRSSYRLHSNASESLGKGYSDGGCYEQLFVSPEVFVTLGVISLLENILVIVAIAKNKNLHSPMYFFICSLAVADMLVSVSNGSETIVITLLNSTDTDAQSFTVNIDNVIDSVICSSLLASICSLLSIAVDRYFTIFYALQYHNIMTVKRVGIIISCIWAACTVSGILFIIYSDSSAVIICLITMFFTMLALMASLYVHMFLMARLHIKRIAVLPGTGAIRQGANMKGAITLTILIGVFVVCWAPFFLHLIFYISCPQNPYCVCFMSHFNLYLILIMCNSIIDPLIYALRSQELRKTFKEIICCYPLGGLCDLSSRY

Row | SMILES | MC4 Inhibition at 4.0 Micromolar
1 | NCCC(=O)N[C@H]1C(OCc2ccc(Cl)cc2)O[C@H](COCc2ccc(Cl)cc2)[C@@H](O)[C@@H]1OCc1ccccc1 (stereo partly shown) [Compound 385] | + (Indicates inhibition greater than . . . 50%)
2 | NCCCC(=O)N[C@H]1C(OCc2ccc(Cl)cc2)O[C@H](COCc2ccc3ccccc3c2)[C@@H](O)[C@@H]1OCc1ccc(Cl)cc1 (stereo partly shown) [Compound 386] | + (Indicates inhibition greater than . . . 50%)
3 | NCCCC(=O)N[C@H]1C(OCc2ccc(Cl)cc2)O[C@H](COCc2ccccc2)[C@@H](O)[C@@H]1OCc1ccc(Cl)cc1 (stereo partly shown) [Compound 387] | + (Indicates inhibition greater than . . . 50%)
4 | NCCCC(=O)N[C@H]1C(OCc2ccc(Cl)cc2)O[C@H](COCc2ccc(Cl)cc2)[C@@H](O)[C@@H]1OCc1ccc(Cl)cc1 (stereo partly shown) [Compound 388] | + (Indicates inhibition greater than . . . 50%)
5 | NCCCC(=O)N[C@H]1C(OCc2ccc(Cl)cc2)O[C@H](COCc2ccc3ccccc3c2)[C@@H](O)[C@@H]1OCc1ccccc1 (stereo partly shown) [Compound 395] | + (Indicates inhibition greater than . . . 50%)
6 | NCCCC(=O)N[C@H]1C(OCc2ccc(Cl)cc2)O[C@H](COCc2ccc(Cl)cc2)[C@@H](O)[C@@H]1OCc1ccccc1 (stereo partly shown) [Compound 396] | + (Indicates inhibition greater than . . . 50%)

same assay, conditions: 4.0 Micromolar; Example Library 11

Row | SMILES | MC4 Inhibition at 4.0 Micromolar
7 | NCCC(=O)NC1C(OCc2ccccc2)OC(COCc2ccc3ccccc3c2)C(O)C1OCc1ccc(Cl)cc1 (stereo not shown) [Compound 397] | + (Indicates inhibition greater than . . . 50%)
8 | NCCC(=O)NC1C(OCc2ccccc2)OC(COCc2ccccc2)C(O)C1OCc1ccc(Cl)cc1 (stereo not shown) [Compound 398] | + (Indicates inhibition greater than . . . 50%)
9 | NCCC(=O)NC1C(OCc2ccccc2)OC(COCc2ccc(Cl)cc2)C(O)C1OCc1ccc(Cl)cc1 (stereo not shown) [Compound 399] | + (Indicates inhibition greater than . . . 50%)
10 | NCCC(=O)NC1C(OCc2ccccc2)OC(COCc2ccc3ccccc3c2)C(O)C1OCc1ccc2ccccc2c1 (stereo not shown) [Compound 400] | + (Indicates inhibition greater than . . . 50%)
11 | NCCC(=O)NC1C(OCc2ccccc2)OC(COCc2ccccc2)C(O)C1OCc1ccc2ccccc2c1 (stereo not shown) [Compound 401] | + (Indicates inhibition greater than . . . 50%)
12 | NCCC(=O)NC1C(OCc2ccccc2)OC(COCc2ccc(Cl)cc2)C(O)C1OCc1ccc2ccccc2c1 (stereo not shown) [Compound 402] | + (Indicates inhibition greater than . . . 50%)
13 | NCCC(=O)NC1C(OCc2ccccc2)OC(COCc2ccc3ccccc3c2)C(O)C1OCc1ccccc1 (stereo not shown) [Compound 403] | + (Indicates inhibition greater than . . . 50%)
14 | NCCC(=O)NC1C(OCc2ccccc2)OC(COCc2ccccc2)C(O)C1OCc1ccccc1 (stereo not shown) [Compound 404] | + (Indicates inhibition greater than . . . 50%)
15 | NCCC(=O)NC1C(OCc2ccccc2)OC(COCc2ccc(Cl)cc2)C(O)C1OCc1ccccc1 (stereo not shown) [Compound 405] | + (Indicates inhibition greater than . . . 50%)
16 | NCCCC(=O)NC1C(OCc2ccccc2)OC(COCc2ccc3ccccc3c2)C(O)C1OCc1ccc(Cl)cc1 (stereo not shown) [Compound 406] | + (Indicates inhibition greater than . . . 50%)
17 | NCCCC(=O)NC1C(OCc2ccccc2)OC(COCc2ccc(Cl)cc2)C(O)C1OCc1ccc(Cl)cc1 (stereo not shown) [Compound 407] | + (Indicates inhibition greater than . . . 50%)
18 | NCCCC(=O)NC1C(OCc2ccccc2)OC(COCc2ccc3ccccc3c2)C(O)C1OCc1ccc2ccccc2c1 (stereo not shown) [Compound 408] | + (Indicates inhibition greater than . . . 50%)
19 | NCCCC(=O)NC1C(OCc2ccccc2)OC(COCc2ccccc2)C(O)C1OCc1ccc2ccccc2c1 (stereo not shown) [Compound 409] | + (Indicates inhibition greater than . . . 50%)
20 | NCCCC(=O)NC1C(OCc2ccccc2)OC(COCc2ccc(Cl)cc2)C(O)C1OCc1ccc2ccccc2c1 (stereo not shown) [Compound 410] | + (Indicates inhibition greater than . . . 50%)
21 | NCCCC(=O)NC1C(OCc2ccccc2)OC(COCc2ccc3ccccc3c2)C(O)C1OCc1ccccc1 (stereo not shown) [Compound 411] | + (Indicates inhibition greater than . . . 50%)
22 | NCCCC(=O)NC1C(OCc2ccccc2)OC(COCc2ccc(Cl)cc2)C(O)C1OCc1ccccc1 (stereo not shown) [Compound 412] | + (Indicates inhibition greater than . . . 50%)
23 | NCCC(=O)NC1C(OCc2ccc3ccccc3c2)OC(COCc2ccc3ccccc3c2)C(O)C1OCc1ccc(Cl)cc1 (stereo not shown) [Compound 413] | + (Indicates inhibition greater than . . . 50%)

Row | SMILES | MC4 Inhibition at 4.0 Micromolar
24 | NCCC(=O)NC1C(OCc2ccc3ccccc3c2)OC(COCc2ccccc2)C(O)C1OCc1ccc(Cl)cc1 (stereo not shown) [Compound 414] | + (Indicates inhibition greater than . . . 50%)
25 | NCCC(=O)NC1C(OCc2ccc3ccccc3c2)OC(COCc2ccc(Cl)cc2)C(O)C1OCc1ccc(Cl)cc1 (stereo not shown) [Compound 415] | + (Indicates inhibition greater than . . . 50%)
26 | NCCC(=O)NC1C(OCc2ccc3ccccc3c2)OC(COCc2ccc3ccccc3c2)C(O)C1OCc1ccc2ccccc2c1 (stereo not shown) [Compound 416] | + (Indicates inhibition greater than . . . 50%)
27 | NCCC(=O)NC1C(OCc2ccc3ccccc3c2)OC(COCc2ccccc2)C(O)C1OCc1ccc2ccccc2c1 (stereo not shown) [Compound 417] | + (Indicates inhibition greater than . . . 50%)
28 | NCCC(=O)NC1C(OCc2ccc3ccccc3c2)OC(COCc2ccc(Cl)cc2)C(O)C1OCc1ccc2ccccc2c1 (stereo not shown) [Compound 418] | + (Indicates inhibition greater than . . . 50%)
29 | NCCC(=O)NC1C(OCc2ccc3ccccc3c2)OC(COCc2ccc3ccccc3c2)C(O)C1OCc1ccccc1 (stereo not shown) [Compound 419] | + (Indicates inhibition greater than . . . 50%)
30 | NCCC(=O)NC1C(OCc2ccc3ccccc3c2)OC(COCc2ccccc2)C(O)C1OCc1ccccc1 (stereo not shown) [Compound 420] | + (Indicates inhibition greater than . . . 50%)
31 | NCCC(=O)NC1C(OCc2ccc3ccccc3c2)OC(COCc2ccc(Cl)cc2)C(O)C1OCc1ccccc1 (stereo not shown) [Compound 421] | + (Indicates inhibition greater than . . . 50%)
32 | NCCCC(=O)NC1C(OCc2ccc3ccccc3c2)OC(COCc2ccc3ccccc3c2)C(O)C1OCc1ccc(Cl)cc1 (stereo not shown) [Compound 422] | + (Indicates inhibition greater than . . . 50%)
33 | NCCCC(=O)NC1C(OCc2ccc3ccccc3c2)OC(COCc2ccccc2)C(O)C1OCc1ccc(Cl)cc1 (stereo not shown) [Compound 423] | + (Indicates inhibition greater than . . . 50%)
34 | NCCCC(=O)NC1C(OCc2ccc3ccccc3c2)OC(COCc2ccc(Cl)cc2)C(O)C1OCc1ccc(Cl)cc1 (stereo not shown) [Compound 424] | + (Indicates inhibition greater than . . . 50%)
35 | NCCCC(=O)NC1C(OCc2ccc3ccccc3c2)OC(COCc2ccc3ccccc3c2)C(O)C1OCc1ccc2ccccc2c1 (stereo not shown) [Compound 425] | + (Indicates inhibition greater than . . . 50%)
36 | NCCCC(=O)NC1C(OCc2ccc3ccccc3c2)OC(COCc2ccccc2)C(O)C1OCc1ccc2ccccc2c1 (stereo not shown) [Compound 426] | + (Indicates inhibition greater than . . . 50%)
37 | NCCCC(=O)NC1C(OCc2ccc3ccccc3c2)OC(COCc2ccc(Cl)cc2)C(O)C1OCc1ccc2ccccc2c1 (stereo not shown) [Compound 427] | + (Indicates inhibition greater than . . . 50%)
38 | NCCCC(=O)NC1C(OCc2ccc3ccccc3c2)OC(COCc2ccc3ccccc3c2)C(O)C1OCc1ccccc1 (stereo not shown) [Compound 428] | + (Indicates inhibition greater than . . . 50%)
39 | NCCCC(=O)NC1C(OCc2ccc3ccccc3c2)OC(COCc2ccccc2)C(O)C1OCc1ccccc1 (stereo not shown) [Compound 429] | + (Indicates inhibition greater than . . . 50%)
40 | NCCCC(=O)NC1C(OCc2ccc3ccccc3c2)OC(COCc2ccc(Cl)cc2)C(O)C1OCc1ccccc1 (stereo not shown) [Compound 430] | + (Indicates inhibition greater than . . . 50%)

same assay, conditions: 4.0 Micromolar; Example Library 12

Row | SMILES | MC4 Inhibition at 4.0 Micromolar
41 | N=C(N)NCC(=O)N[C@H]1C(OCc2ccccc2)O[C@H](COCc2ccc3ccccc3c2)[C@@H](O)[C@@H]1OCc1ccc(Cl)cc1 (stereo partly shown) [Compound 431] | + (Indicates inhibition greater than . . . 50%)
42 | N=C(N)NCC(=O)N[C@H]1C(OCc2ccccc2)O[C@H](COCc2ccc3ccccc3c2)[C@@H](O)[C@@H]1OCc1ccc(Cl)cc1 (stereo partly shown) [Compound 432] | + (Indicates inhibition greater than . . . 50%)
43 | N=C(N)NCC(=O)N[C@H]1C(OCc2ccccc2)O[C@H](COCc2ccccc2)[C@@H](O)[C@@H]1OCc1ccc(Cl)cc1 (stereo partly shown) [Compound 433] | + (Indicates inhibition greater than . . . 50%)
44 | N=C(N)NCC(=O)N[C@H]1C(OCc2ccccc2)O[C@H](COCc2ccccc2)[C@@H](O)[C@@H]1OCc1ccc(Cl)cc1 (stereo partly shown) [Compound 434] | + (Indicates inhibition greater than . . . 50%)
45 | N=C(N)NCC(=O)N[C@H]1C(OCc2ccccc2)O[C@H](COCc2ccc(Cl)cc2)[C@@H](O)[C@@H]1OCc1ccc(Cl)cc1 (stereo partly shown) [Compound 435] | + (Indicates inhibition greater than . . . 50%)
46 | N=C(N)NCC(=O)N[C@H]1C(OCc2ccccc2)O[C@H](COCc2ccc3ccccc3c2)[C@@H](O)[C@@H]1OCc1ccc2ccccc2c1 (stereo partly shown) [Compound 436] | + (Indicates inhibition greater than . . . 50%)
